Experimental data: US20110173718A1, “HERBICIDE TOLERANT PLANTS” (SYNGENTA CROP PROTECTION, INC., priority 2008, published 2011)

Assays:
[1] = tested on: Tobacco (var Samsun) plantlets in agar; assay: HST + HPPD herbicide effects on tobacco seedlings in agar; type: in vivo; conditions: for % Injury, plus Mesotrione (0.004 ppm) (EXPECTED): Colby expected; for % Injury (O − E): observed minus expected
Protocol: Tobacco (var Samsun) plantlets germinated aseptically in agar made up in 1/3 strength Murashige and Skoog salts medium along with various doses of herbicide. Bleaching damage to emerging plantlets is assessed 7 DAT. The plantlets are kept covered under clear perspex and grown at 18° C. (night) and 24° C. (day) under a 16 h day (˜500-900 umol/m^2), 8 h darkness regime. Herbicide affected plantlets are bleached white and grow less. Synergistic/antagonistic responses are calculated using the Colby formula (Colby, S. R. (Calculating synergistic and antagonistic responses of herbicide Combinations”, Weeds, 15, p. 20-22, 1967).

tobacco leaf explants = assay: Tobacco leaf explants plated on NBM medium with haloxydine; type: in vivo; conditions: 1 mg/1 haloxydine
Protocol: To roughly evaluate comparative levels of ectopic HST expression independent PCR positive tobacco shoots have young leaves removed, cut into 1 cm squares and plated onto NBM medium incorporating 1 mg/1 haloxydine. These leaf explants produce callus and ultimately regenerated shoots.

[2] = haloxydine 0.3 ppm + mesotrione 0.004 ppm, agar, 7 DAT
[3] = haloxydine 0.6 ppm + mesotrione 0.004 ppm, agar, 7 DAT
[4] = haloxydine 1.2 ppm + mesotrione 0.004 ppm, agar, 7 DAT
[5] = haloxydine 2.4 ppm + mesotrione 0.004 ppm, agar, 7 DAT
[6] = haloxydine 4.7 ppm + mesotrione 0.004 ppm, agar, 7 DAT
[7] = haloxydine 9.4 ppm + mesotrione 0.004 ppm, agar, 7 DAT
[8] = haloxydine 18.8 ppm + mesotrione 0.004 ppm, agar, 7 DAT
[9] = haloxydine 37.5 ppm + mesotrione 0.004 ppm, agar, 7 DAT

CS(=O)(=O)c1ccc(C(=O)C2C(=O)CCCC2=O)c([N+](=O)[O-])c1 [Mesotrione, mesotrione, reference compound]
% Injury (bleaching), mesotrione by itself ([1]; mesotrione 0.004 ppm, 0.75% v/v DMSO, no haloxydine, agar, 7 DAT): 35%

Oc1c(Cl)c(F)nc(F)c1Cl [Compound 1.1, haloxydine]
% Injury, plus Mesotrione (0.004 ppm) (EXPECTED) [1, 2]: 41.5% | % Injury, plus Mesotrione (0.004 ppm) (EXPECTED) [1, 3]: 48% | % Injury, plus Mesotrione (0.004 ppm) (EXPECTED) [1, 4]: 58% | % Injury, plus Mesotrione (0.004 ppm) (EXPECTED) [1, 5]: 67.5% | % Injury, plus Mesotrione (0.004 ppm) (EXPECTED) [1, 6]: 80% | % Injury, plus Mesotrione (0.004 ppm) (EXPECTED) [1, 7]: 94% | % Injury, plus Mesotrione (0.004 ppm) (EXPECTED) [1, 8]: 100% | % Injury, plus Mesotrione (0.004 ppm) (EXPECTED) [1, 9]: 100% | effect of adding a low dose of mesotrione on the herbicidal effect ([1]; agar grown tobacco plantlets): synergises | % Injury, plus Mesotrione (0.004 ppm) (OBSERVED) [1, 2]: 50% | % Injury (bleaching), haloxydine only ([1]; haloxydine 0.3 ppm, agar, 7 DAT): 10% | % Injury, plus Mesotrione (0.004 ppm) (OBSERVED) [1, 3]: 50% | % Injury (bleaching), haloxydine only ([1]; haloxydine 0.6 ppm, agar, 7 DAT): 20% | % Injury, plus Mesotrione (0.004 ppm) (OBSERVED) [1, 4]: 70% | % Injury (bleaching), haloxydine only ([1]; haloxydine 1.2 ppm, agar, 7 DAT): 35% | % Injury, plus Mesotrione (0.004 ppm) (OBSERVED) [1, 5]: 90% | % Injury (bleaching), haloxydine only ([1]; haloxydine 2.4 ppm, agar, 7 DAT): 50% | % Injury, plus Mesotrione (0.004 ppm) (OBSERVED) [1, 6]: 100% | % Injury (bleaching), haloxydine only ([1]; haloxydine 4.7 ppm, agar, 7 DAT): 70% | % Injury, plus Mesotrione (0.004 ppm) (OBSERVED) [1, 7]: 100% | % Injury (bleaching), haloxydine only ([1]; haloxydine 9.4 ppm, agar, 7 DAT): 90% | % Injury, plus Mesotrione (0.004 ppm) (OBSERVED) [1, 8]: 100% | % Injury (bleaching), haloxydine only ([1]; haloxydine 18.8 ppm, agar, 7 DAT): 100% | % Injury, plus Mesotrione (0.004 ppm) (OBSERVED) [1, 9]: 100% | % Injury (bleaching), haloxydine only ([1]; haloxydine 37.5 ppm, agar, 7 DAT): 100% | % Injury (O − E) [1, 2]: 8.5% | % Injury (O − E) [1, 3]: 2% | % Injury (O − E) [1, 4]: 12% | % Injury (O − E) [1, 5]: 22.5% | % Injury (O − E) [1, 6]: 20% | % Injury (O − E) [1, 7]: 6% | % Injury (O − E) [1, 8]: 0% | % Injury (O − E) [1, 9]: 0% | callus and shoot regeneration (tobacco leaf explants; explants over expressing HST): green callus and shoots | callus and shoot regeneration (tobacco leaf explants; untransformed explants or transformants with limited HST expression): bleached callus and stunted bleached shoots that ultimately died
